{
  "source": "paper PMC9696085",
  "about": "“Fully Symmetric Cyclodextrin Polycarboxylates: How to Determine Reliable Protonation Constants from NMR Titration Data” (International Journal of Molecular Sciences, 2022)",
  "key": {"[1]": {"design": "method as in doi:10.1021/jp0340820", "details": "cited from earlier work"}, "[2]": {"assay": "1H NMR-pH titration, protonation constants", "assay_type": "physicochemical", "protocol": "The pH meter readings were recorded using a Metrohm pH meter, equipped with a Metrohm 6.0234.110 combined glass electrode. A four-point calibration using pH 2.00, pH 4.00, pH 7.00 and pH 11.00 standard buffer solutions were performed directly before pH adjustments. The pH measurements were performed in 25 mL vessels with proper stirring before transferring 600 μL sample solutions into the NMR tubes. Solutions were prepared in the pH range of 1.50–8.70 with 0.30 increments using 0.9 M, 0.5 M and 0.1 M sodium hydroxide and hydrochloric acid solutions in H2O:D2O = 9:1.\nFor structural characterizations of CD derivatives in D2O, a 600 MHz Varian DDR NMR spectrometer equipped with a 5 mm inverse-detection gradient probe or a 400 MHz Varian Mercury Plus spectrometer equipped with a 5mm Varian 400 Automation Triple Resonance Broadband Pulsed Field Gradient probe was used. For NMR-pH titrations, the same instruments were used. The pH-dependent series of ^1H NMR spectra were recorded in a solvent mixture of H2O:D2O = 9:1 by volume, where the constant ionic strength and the buffer capacity were adjusted using 0.05 M sodium chloride and 0.05 M acetic acid-d4. An appropriate amount of CD was weighed to obtain a 1 mM solution and finally one drop of methanol was added as a chemical shift reference (3.310 ppm). The water resonance was diminished by the dpfgse pulse sequence or presaturation. All the spectra were processed using the MestReNova v9.0.1-13254 (Mestralab Research, S.L., Santiago de Compostela, Spain) software.\nThe standard macroscopic evaluation of NMR-pH titration curves (Equation (3) in Section 2.2) was performed with the following software tools: Microcal Origin Pro 8 (OriginLab Corp., Northampton, MA, USA), HypNMR2018 [38], OPIUM [39] and home-written R scripts (R version 4.1.2, The R Foundation, Vienna, Austria) using the nls module. The equidistant macroscopic (Equation (8)) and Q-fitting (Equations (4) and (11)) models were fitted both by Origin and our R-scripts to verify their equivalent performance regarding statistical description of the parameter estimates. The microscopic cluster expansion model in Section 2.5 requires summation of >100 variables which is unfeasible in the form of an explicit model function required by commercial data-fitting software like Origin. The enumeration of microspecies was therefore accomplished in a custom-written R script. To assess the robustness of our data-fitting model as well as the error propagation of the optimized log k and pε parameters to the derived log K macroconstants, Monte Carlo simulations on >1000 replicates were performed in R."}, "[3]": {"details": "cited from earlier work"}, "[4]": {"design": "method as in PMID 18613172", "details": "literature, cited from earlier work"}, "[5]": {"details": "ED macro, Eq. (7) evaluation, calculated (*)"}, "[6]": {"details": "Macroscopic, Eq. (2) evaluation"}, "[7]": {"details": "Macroscopic, Eq. (2) evaluation, calculated (*)"}, "[8]": {"details": "Microscopic, Eq. (3) evaluation, calculated (*)"}, "[9]": {"details": "Literature, ref Hawkins, Perrin, Inorg. Chem. 2 (1963) 843"}, "[10]": {"details": "ED macro or Q-fitting evaluation, ? = physically unrealistic, SD in parentheses"}, "[11]": {"details": "ED macro or Q-fitting evaluation, H2O:D2O = 9:1, 0.05 M NaCl, SD in parentheses"}, "[12]": {"details": "converted from optimized microscopic basicity parameters (site-binding model)"}, "[13]": {"details": "from ED macro or Q-fitting macroconstants by Eq. 18"}, "[14]": {"details": "from ED macro or Q-fitting macroconstants by Eq. 18, ? = physically unrealistic"}, "[15]": {"details": "site-binding (SB) microscopic evaluation"}, "[16]": {"details": "site-binding (SB) microscopic evaluation, converted from log kA and pε, errors by Monte Carlo"}},
  "note": "“And” between values parts separate entries of the source, which are not always exact repeats. Equal values may be shown once. Read-outs that look alike come from different tables or passages of the source.",
  "data": [
    {"molecule": "oxidized glutathione", "values": [
      {"measurement": "pε (carboxylate interactions)", "setting": "[1]", "result": "≈ 0.1"}
    ]},
    {"molecule": "O=C(O)CCSSCCC(=O)O", "note": "[DTDPA, 3,3′-dithiodipropionic acid, reference compound]", "values": [
      {"measurement": "log K1", "setting": "[2]; ED macro, Eq. (7) evaluation", "result": "4.631 (0.005)"},
      {"measurement": "log K2", "setting": "[2]; ED macro, Eq. (7) evaluation", "result": "3.883 (0.005)"},
      {"measurement": "log kA", "setting": "[2]; [5]", "result": "4.330 (0.005)"},
      {"measurement": "pεAB", "setting": "[2]; [5]", "result": "0.15 (0.01)"},
      {"measurement": "log K1", "setting": "[2]; [6]", "result": "4.62 (0.06)"},
      {"measurement": "log K2", "setting": "[2]; [6]", "result": "3.87 (0.07)"},
      {"measurement": "log kA", "setting": "[2]; [7]", "result": "4.32 (0.06)"},
      {"measurement": "pεAB", "setting": "[2]; [7]", "result": "0.15 (0.01)"},
      {"measurement": "log K1", "setting": "[2]; [8]", "result": "4.630 (0.005)"},
      {"measurement": "log K2", "setting": "[2]; [8]", "result": "3.88 (0.01)"},
      {"measurement": "log K1", "setting": "[3]; [9]", "result": 4.47},
      {"measurement": "log K2", "setting": "[3]; [9]", "result": 3.88},
      {"measurement": "log kA", "setting": "[3]; [9]", "result": 4.16},
      {"measurement": "pεAB", "setting": "[3]; [9]", "result": -0.01},
      {"measurement": "pε", "setting": "[3]; earlier literature, almost independent carboxylate protonations", "result": "≈ 0"},
      {"measurement": "log kA", "setting": "[3]; literature value", "result": 4.16}
    ]},
    {"molecule": "O=C(O)CCSC[C@H]1O[C@@H]2O[C@H]3[C@H](O)[C@@H](O)[C@@H](O[C@H]4[C@H](O)[C@@H](O)[C@@H](O[C@H]5[C@H](O)[C@@H](O)[C@@H](O[C@H]6[C@H](O)[C@@H](O)[C@@H](O[C@H]7[C@H](O)[C@@H](O)[C@@H](O[C@H]8[C@H](O)[C@@H](O)[C@@H](O[C@H]1[C@H](O)[C@H]2O)O[C@@H]8CSCCC(=O)O)O[C@@H]7CSCCC(=O)O)O[C@@H]6CSCCC(=O)O)O[C@@H]5CSCCC(=O)O)O[C@@H]4CSCCC(=O)O)O[C@@H]3CSCCC(=O)O", "note": "[Suβ-CD, subetadex]", "values": [
      {"measurement": "log K5", "setting": "[2]; [10]", "result": "4.54 (0.06)"},
      {"measurement": "log K7", "setting": "[2]; [10]", "result": "3.69 (0.03)"},
      {"measurement": "log K1", "setting": "[2]; [11]", "result": "6.60 (0.03)"},
      {"measurement": "log K2", "setting": "[2]; [11]", "result": "6.18 (0.04)"},
      {"measurement": "log K3", "setting": "[2]; [11]", "result": "5.27 (0.08)"},
      {"measurement": "macroscopic pKa, 1st of the set", "setting": "[2]; [12]", "result": 3.82},
      {"measurement": "macroscopic pKa, 2nd of the set", "setting": "[2]; [12]", "result": 4.31},
      {"measurement": "macroscopic pKa, 3rd of the set", "setting": "[2]; [12]", "result": 4.73},
      {"measurement": "macroscopic pKa, 4th of the set", "setting": "[2]; [12]", "result": 5.18},
      {"measurement": "macroscopic pKa, 5th of the set", "setting": "[2]; [12]", "result": 5.64},
      {"measurement": "macroscopic pKa, 6th of the set", "setting": "[2]; [12]", "result": 6.06},
      {"measurement": "macroscopic pKa, 7th of the set", "setting": "[2]; [12]", "result": 6.54},
      {"measurement": "log k¯1 (averaged microconstant)", "setting": "[2]; [13]", "result": "5.75 (0.03)"},
      {"measurement": "log k¯2 (averaged microconstant)", "setting": "[2]; [13]", "result": "5.71 (0.04)"},
      {"measurement": "log k¯3 (averaged microconstant)", "setting": "[2]; [13]", "result": "5.04 (0.08)"},
      {"measurement": "log k¯5 (averaged microconstant)", "setting": "[2]; [14]", "result": "4.76 (0.06)"},
      {"measurement": "log k¯7 (averaged microconstant)", "setting": "[2]; [14]", "result": "4.53 (0.03)"},
      {"measurement": "log k¯1 (averaged microconstant)", "setting": "[2]; [15]", "result": "5.70 (0.02)"},
      {"measurement": "log k¯2 (averaged microconstant)", "setting": "[2]; [15]", "result": "5.58 (0.02)"},
      {"measurement": "log k¯3 (averaged microconstant)", "setting": "[2]; [15]", "result": "5.42 (0.02)"},
      {"measurement": "log k¯4 (averaged microconstant)", "setting": "[2]; [15]", "result": "5.18 (0.01)"},
      {"measurement": "log k¯5 (averaged microconstant)", "setting": "[2]; [15]", "result": "4.95 (0.02)"},
      {"measurement": "log k¯6 (averaged microconstant)", "setting": "[2]; [15]", "result": "4.78 (0.02)"},
      {"measurement": "log k¯7 (averaged microconstant)", "setting": "[2]; [15]", "result": "4.67 (0.02)"},
      {"measurement": "log K1", "setting": "[2]; [16]", "result": "6.54 (0.02)"},
      {"measurement": "log K2", "setting": "[2]; [16]", "result": "6.06 (0.02)"},
      {"measurement": "log K3", "setting": "[2]; [16]", "result": "5.64 (0.02)"},
      {"measurement": "log K4", "setting": "[2]; [16]", "result": "5.18 (0.01)"},
      {"measurement": "log K5", "setting": "[2]; [16]", "result": "4.73 (0.02)"},
      {"measurement": "log K6", "setting": "[2]; [16]", "result": "4.31 (0.02)"},
      {"measurement": "log K7", "setting": "[2]; [16]", "result": "3.82 (0.02)"},
      {"measurement": "pε12 = averaged interactivity parameter pε¯", "setting": "[2]; site-binding model with a single interactivity parameter", "result": 0.5144},
      {"measurement": "log kA (carboxylate core microconstant)", "setting": "[2]; site-binding model with a single interactivity parameter pε12 (pε¯)", "result": "5.697 and 5.70"},
      {"measurement": "log k", "setting": "[2]; site-binding model without any pair-interactivity parameters (unsatisfactory fit)", "result": 5.17},
      {"measurement": "log K1", "setting": "[4]; potentiometric", "result": "6.49 (1)"},
      {"measurement": "log K2", "setting": "[4]; potentiometric", "result": "5.69 (1)"},
      {"measurement": "log K3", "setting": "[4]; potentiometric", "result": "5.25 (1)"},
      {"measurement": "log K4", "setting": "[4]; potentiometric", "result": "4.75 (1)"},
      {"measurement": "log K5", "setting": "[4]; potentiometric", "result": "4.31 (1)"},
      {"measurement": "log K6", "setting": "[4]; potentiometric", "result": "3.78 (1)"},
      {"measurement": "log K7", "setting": "[4]; potentiometric", "result": "<3"},
      {"measurement": "log kA", "setting": "[4]", "result": 5.64}
    ]}
  ]
}
